# Experimental data taken from patent US5540937A, “Process for preparing microspheres for the prolonged release of the LHRH hormone and its analogues, microspheres and formulations obtained” (Rhone Merieux, priority 1992, dated 1996).
# Experiment: solubility of the peptide in the continuous phase
# Assay type: physicochemical
# Settings: continuous aqueous phase (demineralized water containing 1% PVA)
# Source text: Although the solubility of this peptide in water is high, high encapsulation yields are obtained.
structure (smiles),measurement,value
CC(C)C[C@H](NC(=O)[C@@H](Cc1c[nH]c2ccccc12)NC(=O)[C@H](Cc1ccc(O)cc1)NC(=O)[C@H](CO)NC(=O)[C@H](Cc1c[nH]c2ccccc12)NC(=O)[C@H](Cc1c[nH]cn1)NC(=O)[C@@H]1CCC(=O)N1)C(=O)N[C@@H](CCCNC(=N)N)C(=O)N1CCC[C@H]1C(=O)NCC(N)=O [[D-Trp^6]-LHRH],solubility in the continuous phase,about 45 mg/ml
